These results are taken from patent US7276508B2, “Indole derivatives useful for the treatment of CNS disorders” (H. Lundbeck A/S, priority 2000, dated 2007).

One data set has as its target T1, D4 receptor (Homo sapiens, UniProt P21917).
T1 sequence (P21917 1-419): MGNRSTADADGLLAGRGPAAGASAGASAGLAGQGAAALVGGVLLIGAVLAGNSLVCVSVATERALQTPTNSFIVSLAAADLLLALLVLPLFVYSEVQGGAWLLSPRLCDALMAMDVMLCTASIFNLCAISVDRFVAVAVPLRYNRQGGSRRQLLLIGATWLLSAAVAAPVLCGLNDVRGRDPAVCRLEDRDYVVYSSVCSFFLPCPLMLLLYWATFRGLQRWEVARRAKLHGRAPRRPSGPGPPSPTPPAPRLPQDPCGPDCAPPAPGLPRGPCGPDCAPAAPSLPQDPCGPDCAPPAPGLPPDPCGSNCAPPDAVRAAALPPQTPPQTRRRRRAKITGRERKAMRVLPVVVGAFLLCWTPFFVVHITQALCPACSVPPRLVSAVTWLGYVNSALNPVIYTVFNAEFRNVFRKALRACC
The settings on record: various in vitro efficacy assays; cited from earlier work.

Broadly, the melting point is the temperature, or range, at which the solid turns liquid.

In turn, `O=C(CCCN1CCC(c2c[nH]c3ccc(F)cc23)CC1)N1CCc2ccccc2C1` [Compound 7, 5-Fluoro-3-{1-[4-(3,4-dihydro-1H-isoquinolin-2-yl)-4-oxobutan-1-yl]piperidin-4-yl}-1H-indole] had a melting point of 146 to 148 °C.

The molecule `O=C(CCCN1CCC(c2c[nH]c3ccc(Cl)cc23)CC1)N1CCc2ccccc2C1` [Compound 8, 5-Chloro-3-{1-[4-(3,4-dihydro-1H-isoquinolin-2-yl)-4-oxobutan-1-yl]piperidin-4-yl}-1H-indole] returned a melting point of 172 to 175 °C.

Regarding `CC(C)Oc1cccnc1N(C)C1CCN(Cc2ccccc2)CC1` [Compound U-101958], on D4 receptor, the “Functional activity at D4 receptor (literature)” value is on record as “partial D4 receptor agonists”.
